Data published in patent US20160326540A1, “Methods and Compositions Employing a Sulfonylurea-Dependent Stabilization Domain” (PIONEER HI-BRED INTERNATIONAL, INC., priority 2013, published 2016).

What was measured:
[1] = tested on: S. cereviseae BY4742; experiment: GFP destabilization/re-stabilization assay of TetR::AcGFP fusions in yeast liquid culture +/- atc; type: cell-based, Saccharomyces cereviseae; conditions: TetR::AcGFP fusion, galactose induced, 6 hrs growth, FIG. 3
Text: The third mutation, 122D (Reichheld and Davidson 2006), is a constitutive mutation in the presence or absence of ligand. Both L17G and I22D lie in the DNA binding domain (DBD) whereas G96R is in alpha helix 6 within the ligand binding domain (LBD). To test the effect of these mutations for ligand gated stability a GFP destabilization/re-stabilization assay (FIG. 1) was created. To do this a fusion between the coding regions of TetR B (Wray et al. 1981) and AcGFP (Gurskaya et al. 2003) by PCR amplifying the TetR region from plasmid pVER7568 using primers REPS' and TetR::AcGFP Rev and the AcGFP coding region from plasmid pHD1010 with primers TetR::AcGFP For and AcGFP3′ (Table 2) was created. The PCR products were then combined and subjected to overlap extension PCR using primers REPS' and AcGFP3′. The resulting full length PCR fusion product was then cloned into the Galactose inducible yeast expression vector p415GAL (ATCC#87330) as an XbaI/HindIII fragment. […] 100 ul aliquots of resuspended cells were placed into clear bottom black 96-well plates and their fluorescence determined with a Typhoon Laser Image Scanner (GE: […]). […]

[2] = tested on: S. cereviseae BY4742; experiment: GFP fluorescence of wt and L17G repressor::GFP fusions in yeast on agar +/- atc, ethametsulfuron or chlorsulfuron, incl. dose response; type: cell-based, Saccharomyces cereviseae; conditions: 5-10 uM atc, destabilized (L17G) fusion, FIG. 7
Text: Next, we wanted to determine if a similar ligand enhanced protein accumulation effect would translate to our SU repressor backbones. […] Given the number of changes to the parent sequence and the 100% change in ligand preference it was not clear if they would behave in a similar manner. […] This was done by PCR amplifying the above coding regions with primers REPS' and EsR(L3-23) Rev, EsR(L15-20) Rev, or CsR(L4-20) Rev (Table 2), digesting each PCR product with StuI/BamHI and cloning each product into StuI/BamHI digested backbone fragments of pHD1184 and pHD2012 to give both wt and L17G mutant DNA binding domain combinations, respectively for most of the SuR's (schematic in FIG. 4). The resulting vectors (Table 4) were then transformed into S. cereviseae BY4742 as for pHD1184 (above). Each strain was then grown overnight in YPD medium and the cultures arrayed in 96-well format such that there were four repeats of every strain per plate. The array was then stamped onto 40 ml DOBA agar supplemented with 2% galactose, 0.025% casamino acids, and either 10 uM atc, ethametsulfuron, chlorsulfuron or no addition as the control. The plates were grown two days at 30° C. and imaged using a Typhoon laser scanning imager (GE) with excitation and emission set at 488 and 520 nm respectively. […]

| Substance | accumulation of GFP compared to wt TetR [1] | GFP response to ligand (dose response) [2] [×] |
| --- | --- | --- |
| TetR(G96R) | significant negative impact | – |
| TetR(L17G) | significant negative impact | ~10 |
